Results on 33 molecules are retold here after ChEMBL document CHEMBL2440075, “In vitro structure-activity relationships of aplysinopsin analogs and their in vivo evaluation in the chick anxiety-depression model” (Bioorg Med Chem, 2013).

Test [1] has as its target T1, 5-hydroxytryptamine receptor 2C (Homo sapiens, UniProt P28335).
T1 sequence (P28335 whole entry): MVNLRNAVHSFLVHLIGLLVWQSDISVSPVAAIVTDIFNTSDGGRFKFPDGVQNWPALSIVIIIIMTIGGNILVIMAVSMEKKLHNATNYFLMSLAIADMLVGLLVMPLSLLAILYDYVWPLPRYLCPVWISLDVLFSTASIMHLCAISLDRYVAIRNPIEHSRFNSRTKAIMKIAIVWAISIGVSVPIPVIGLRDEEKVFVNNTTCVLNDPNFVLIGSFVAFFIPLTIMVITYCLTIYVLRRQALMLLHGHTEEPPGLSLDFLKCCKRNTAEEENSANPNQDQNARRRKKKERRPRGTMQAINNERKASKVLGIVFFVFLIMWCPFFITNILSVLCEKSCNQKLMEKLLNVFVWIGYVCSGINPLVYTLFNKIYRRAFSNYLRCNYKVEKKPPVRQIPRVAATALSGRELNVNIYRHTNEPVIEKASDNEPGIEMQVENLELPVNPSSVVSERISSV
Put plainly: Displacement of [3H]mesulergine from human recombinant 5HT2C receptor expressed in Flp-IN HEK cells. The class given is cell-based, HEK293. For orientation: Displacement assays read how much labelled ligand stays bound in the presence of the test substance.

Test [2] concerns the target 5-hydroxytryptamine receptor 2B (Homo sapiens, UniProt P41595). As to the kind of experiment: Displacement of [3H]LSD from human recombinant 5HT2B receptor stably expressed in HEK cells. The class given is cell-based, HEK293.
The target of test [3] is 5-hydroxytryptamine receptor 1E (Homo sapiens, UniProt P28566). As to the kind of experiment: Displacement of [3H]5-HT from human recombinant 5HT1E receptor stably expressed in HEK cells. The class given is cell-based, HEK293.
Test [4] deals with 5-hydroxytryptamine receptor 6 (Homo sapiens, UniProt P50406). Put plainly: Displacement of [3H]LSD from human recombinant 5HT6 receptor stably expressed in HEK cells. The class given is cell-based, HEK293.
The target of test [5] is 5-hydroxytryptamine receptor 5A (Homo sapiens, UniProt P47898). Put plainly: Displacement of [3H]LSD from human recombinant 5HT5A receptor expressed in Flp-In CHO cells. The class given is cell-based.
Test [6] concerns the target 5-hydroxytryptamine receptor 2A (Rattus norvegicus, UniProt P14842). Put plainly: Displacement of [3H]ketanserin from rat 5HT2A receptor stably expressed in 3T3 cells. The class given is cell-based.
In test [7] the target is T2, 5-hydroxytryptamine receptor 1A (Homo sapiens, UniProt P08908).
T2 sequence (P08908 whole entry): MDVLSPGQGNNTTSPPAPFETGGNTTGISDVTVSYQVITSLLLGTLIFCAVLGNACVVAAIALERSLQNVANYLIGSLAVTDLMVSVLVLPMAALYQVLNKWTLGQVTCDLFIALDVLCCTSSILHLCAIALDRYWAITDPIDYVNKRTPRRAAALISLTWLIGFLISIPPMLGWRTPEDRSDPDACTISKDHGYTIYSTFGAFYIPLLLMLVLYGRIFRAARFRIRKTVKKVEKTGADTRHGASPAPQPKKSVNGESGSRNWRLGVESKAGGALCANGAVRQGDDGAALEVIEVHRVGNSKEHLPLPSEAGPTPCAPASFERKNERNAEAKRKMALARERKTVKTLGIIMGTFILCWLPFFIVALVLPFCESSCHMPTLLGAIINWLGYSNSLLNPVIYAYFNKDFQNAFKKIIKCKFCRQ
As to the kind of experiment: Displacement of [3H]way100635 from human recombinant 5HT1A receptor stably expressed in CHO cells. The class given is cell-based.

Test [8] addresses 5-hydroxytryptamine receptor 4 (Homo sapiens, UniProt Q13639). As to the kind of experiment: Displacement of [3H]GR113808 from human recombinant 5HT4 receptor.

For orientation: Ki means the dissociation constant of the complex between target and ligand, obtained from inhibition or displacement.

Sequence of 5-hydroxytryptamine receptor 4 (Q13639 whole entry): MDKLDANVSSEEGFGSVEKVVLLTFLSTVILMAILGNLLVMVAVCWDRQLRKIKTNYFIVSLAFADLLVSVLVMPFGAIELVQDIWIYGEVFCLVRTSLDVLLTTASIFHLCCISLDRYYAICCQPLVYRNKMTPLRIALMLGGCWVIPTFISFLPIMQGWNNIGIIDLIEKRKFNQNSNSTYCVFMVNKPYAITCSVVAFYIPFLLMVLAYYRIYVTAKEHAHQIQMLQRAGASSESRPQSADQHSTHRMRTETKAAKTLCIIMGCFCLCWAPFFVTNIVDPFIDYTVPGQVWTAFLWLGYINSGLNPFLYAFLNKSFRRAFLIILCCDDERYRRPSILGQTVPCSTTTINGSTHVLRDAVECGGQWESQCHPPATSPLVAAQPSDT
Sequence of 5-hydroxytryptamine receptor 5A (P47898 whole entry): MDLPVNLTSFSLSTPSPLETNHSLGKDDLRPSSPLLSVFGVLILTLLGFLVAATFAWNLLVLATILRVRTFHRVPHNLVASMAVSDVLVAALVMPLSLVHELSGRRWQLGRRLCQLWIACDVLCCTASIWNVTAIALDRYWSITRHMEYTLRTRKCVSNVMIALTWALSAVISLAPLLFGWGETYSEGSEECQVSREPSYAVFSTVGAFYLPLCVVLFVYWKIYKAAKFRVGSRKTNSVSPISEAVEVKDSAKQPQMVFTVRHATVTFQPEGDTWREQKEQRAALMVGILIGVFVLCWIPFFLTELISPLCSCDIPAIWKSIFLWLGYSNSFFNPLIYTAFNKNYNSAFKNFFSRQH
Sequence of 5-hydroxytryptamine receptor 1E (P28566 whole entry): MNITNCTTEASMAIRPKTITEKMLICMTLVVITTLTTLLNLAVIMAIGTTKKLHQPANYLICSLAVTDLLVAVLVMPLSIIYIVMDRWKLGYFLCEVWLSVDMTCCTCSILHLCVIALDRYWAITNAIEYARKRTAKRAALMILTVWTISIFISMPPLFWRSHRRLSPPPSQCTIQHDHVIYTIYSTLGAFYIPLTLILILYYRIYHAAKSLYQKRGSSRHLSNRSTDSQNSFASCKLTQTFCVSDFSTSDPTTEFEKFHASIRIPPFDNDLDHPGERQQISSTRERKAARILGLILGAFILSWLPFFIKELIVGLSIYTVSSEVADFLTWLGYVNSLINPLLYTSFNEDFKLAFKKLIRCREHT
Sequence of 5-hydroxytryptamine receptor 2A (P14842 whole entry): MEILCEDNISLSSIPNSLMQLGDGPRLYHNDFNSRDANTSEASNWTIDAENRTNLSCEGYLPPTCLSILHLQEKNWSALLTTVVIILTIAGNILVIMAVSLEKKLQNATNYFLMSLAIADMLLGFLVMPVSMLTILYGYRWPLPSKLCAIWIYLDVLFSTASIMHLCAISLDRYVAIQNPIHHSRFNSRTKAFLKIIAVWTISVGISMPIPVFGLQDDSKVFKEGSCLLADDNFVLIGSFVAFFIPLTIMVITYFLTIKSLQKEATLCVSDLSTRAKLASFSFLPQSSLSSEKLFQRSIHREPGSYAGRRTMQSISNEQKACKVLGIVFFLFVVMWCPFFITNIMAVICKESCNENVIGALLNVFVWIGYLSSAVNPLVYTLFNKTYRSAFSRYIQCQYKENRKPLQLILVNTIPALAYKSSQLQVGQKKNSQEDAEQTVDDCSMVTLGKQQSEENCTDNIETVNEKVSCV
Sequence of 5-hydroxytryptamine receptor 2B (P41595 whole entry): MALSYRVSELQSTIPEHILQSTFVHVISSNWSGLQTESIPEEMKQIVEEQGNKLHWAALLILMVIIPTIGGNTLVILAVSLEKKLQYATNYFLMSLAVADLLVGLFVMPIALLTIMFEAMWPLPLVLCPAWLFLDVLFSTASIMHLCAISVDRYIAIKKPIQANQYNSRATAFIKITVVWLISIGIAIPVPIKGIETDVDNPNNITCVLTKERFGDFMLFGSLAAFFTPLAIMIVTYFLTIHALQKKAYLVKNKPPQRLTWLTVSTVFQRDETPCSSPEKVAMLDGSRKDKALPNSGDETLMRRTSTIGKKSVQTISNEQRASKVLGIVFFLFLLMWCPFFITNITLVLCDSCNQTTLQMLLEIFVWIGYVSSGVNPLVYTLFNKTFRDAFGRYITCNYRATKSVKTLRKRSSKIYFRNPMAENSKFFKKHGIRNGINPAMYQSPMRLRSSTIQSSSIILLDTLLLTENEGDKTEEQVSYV
Sequence of 5-hydroxytryptamine receptor 6 (P50406 whole entry): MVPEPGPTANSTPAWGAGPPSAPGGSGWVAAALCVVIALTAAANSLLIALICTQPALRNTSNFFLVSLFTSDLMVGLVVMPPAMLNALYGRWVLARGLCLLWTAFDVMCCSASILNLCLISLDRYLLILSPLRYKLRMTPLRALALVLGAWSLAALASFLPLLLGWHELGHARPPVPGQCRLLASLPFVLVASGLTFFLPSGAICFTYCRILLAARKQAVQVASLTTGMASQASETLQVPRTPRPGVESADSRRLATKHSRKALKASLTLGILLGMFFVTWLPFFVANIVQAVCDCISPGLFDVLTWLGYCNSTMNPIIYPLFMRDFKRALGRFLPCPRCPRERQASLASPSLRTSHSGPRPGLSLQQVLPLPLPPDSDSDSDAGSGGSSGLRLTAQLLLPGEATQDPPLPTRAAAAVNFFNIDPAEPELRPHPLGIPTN

As for `C/N=C1/N/C(=C/c2c[nH]c3ccccc23)C(=O)N1C`, the Ki was 10 µM in test [1], 5.05 µM in test [2] and > 10 µM in test [3].
With `C/N=C1\NC(=O)/C(=C\c2c[nH]c3c(Br)cccc23)N1C`, the Ki is 2.31 µM in test [4]; 1.42 µM in test [5]; 2.21 µM in test [1]; 0.661 µM in test [2]; 7.97 µM in test [6]; > 10 µM in test [3]. For the same molecule, the inhibition constant Ki in test [7] is > 10 µM.
Turning to `CN1C(=N)NC(=O)/C1=C\c1c[nH]c2cc(Br)ccc12`, the figures for the inhibitory constant (Ki) in test [1] and in test [2] were 3.88 µM and 1.38 µM, respectively.
Take `C/N=C1\NC(=O)/C(=C/c2c[nH]c3cc(Br)ccc23)N1`: the Ki in test [8] worked out at 1.16 µM; in test [1], 0.98 µM; in test [2], 0.154 µM.
With `O=C1NC(=S)N/C1=C\c1c[nH]c2cccc(Br)c12`, the inhibitory constant (Ki) in test [8] was 2.36 µM; in test [1] it was 1.87 µM; in test [2], 0.369 µM.
In the case of `N=C1NC(=O)/C(=C\c2c[nH]c3cc(Br)ccc23)N1`, the Ki in test [5] was 0.184 µM; in test [1], 0.201 µM; in test [2], 0.269 µM; in test [6], 3.13 µM; in test [3], > 10 µM.
`C/N=C1/N/C(=C/c2c[nH]c3c(Br)cccc23)C(=O)N1C`: the Ki in test [1] is 10 µM; in test [2] it was 0.839 µM; in test [3], > 10 µM.
With `CN1C(=N)N/C(=C/c2c[nH]c3cc(Br)ccc23)C1=O`, the Ki in test [5] was 5.36 µM; in test [1], 1.92 µM; in test [2], 0.19 µM; in test [6] it was 4.16 µM; in test [7] it was > 10 µM.
`C/N=C1\N(C)C(=O)/C(=C\c2c[nH]c3cc(Br)ccc23)N1C`: the Ki in test [5] is 4.68 µM; in test [1] it was 1.24 µM; in test [2], 2.47 µM; in test [7] it was > 10 µM.
For `O=C1NC(=S)N/C1=C\c1c[nH]c2c(Br)cccc12`, in test [8], the Ki is 2.21 µM.
As for `N=C1NC(=O)/C(=C\c2c[nH]c3cccc(Br)c23)N1`, the inhibition constant Ki came out at 0.123 µM in test [5], 0.604 µM in test [1], 0.447 µM in test [2] and 4.62 µM in test [6].
As for `CSC1=NC(=O)/C(=C/c2c[nH]c3ccc(Br)cc23)N1`, the Ki in test [8] is 3.8 µM; in test [1] it was 2.09 µM; in test [2] it was 1.35 µM.
Take `CSC1=NC(=O)/C(=C/c2c[nH]c3c(Br)cccc23)N1`: the figures for the Ki in test [8] and in test [2] were 2.35 µM and 0.993 µM, respectively.
As for `C/N=C1\NC(=O)/C(=C\c2c[nH]c3cc(Br)ccc23)N1C`, the Ki in test [1] stood at 2.28 µM; in test [2], 0.489 µM.
Regarding `CN1C(=N)N/C(=C/c2c[nH]c3ccccc23)C1=O`, the Ki was 10 µM in test [1], 1.28 µM in test [2] and > 10 µM in test [3].
With `CN1C(=N)N/C(=C/c2c[nH]c3c(Br)cccc23)C1=O`, the Ki was 1.55 µM in test [5]; 10 µM in test [1]; 0.593 µM in test [2]; > 10 µM in test [3]; 7.27 µM in test [7].
For the molecule `C/N=C1\NC(=O)/C(=C/c2c[nH]c3cccc(Br)c23)N1`, the Ki in test [4] is 3.73 µM; in test [5], 3.37 µM; in test [8] it was 0.472 µM; in test [1], 0.08 µM; in test [2] it was 0.05 µM; in test [6], 0.47 µM.
For `C/N=C1/N/C(=C/c2c[nH]c3cc(Br)ccc23)C(=O)N1C`, the values for the Ki in test [1], in test [2] and in test [3] were 10 µM, 1.27 µM and > 10 µM, respectively.
As to `N=C1NC(=O)/C(=C\c2c[nH]c3c(Br)cccc23)N1`, the Ki in test [4] is 1.4 µM; in test [5], 0.112 µM; in test [1], 0.841 µM; in test [2], 0.457 µM; in test [6] it was 2.15 µM; in test [3], > 10 µM.
With `CN1C(=N)N/C(=C/c2c[nH]c3cccc(Br)c23)C1=O`, the Ki in test [5] is 1.28 µM; in test [1] it was 1.7 µM; in test [2], 0.228 µM; in test [6] it was 8.67 µM; in test [7], 3.44 µM.
As to `CN1C(=N)N(C)/C(=C/c2c[nH]c3cc(Br)ccc23)C1=O`, the Ki was 9.62 µM in test [5], 1.7 µM in test [1], 2.67 µM in test [2] and > 10 µM in test [7].
Consider `CSC1=NC(=O)/C(=C/c2c[nH]c3cccc(Br)c23)N1`, for which the Ki was found to be 1.06 µM in test [8], 0.885 µM in test [1] and 0.78 µM in test [2].
The like results for `C/N=C1\NC(=O)/C(=C/c2c[nH]c3ccccc23)N1` were, in that order, 0.928 µM, 0.97 µM and 0.287 µM.
`N=C1NC(=O)/C(=C\c2c[nH]c3ccccc23)N1`: the Ki in test [5] stood at 0.101 µM; in test [1], 0.349 µM; in test [2], 0.232 µM; in test [6], 1.17 µM.
Take `O=C1NC(=S)N/C1=C\c1c[nH]c2cc(Br)ccc12`: the Ki in test [2] was 2.71 µM.
For the molecule `CN1C(=N)NC(=O)/C1=C\c1c[nH]c2ccccc12`, the figures for the inhibition constant (Ki) in test [1] and in test [2] were 4.78 µM and 0.964 µM, respectively.
The like results for `C/N=C1\NC(=O)/C(=C\c2c[nH]c3ccccc23)N1C` [ISOPLYSIN A] were, in that order, 2.35 µM and 0.716 µM.
With `CN1C(=N)NC(=O)/C1=C\c1c[nH]c2c(Br)cccc12`, the inhibitory constant (Ki) in test [5] was 1.32 µM; in test [1] it was 4.13 µM; in test [2], 1.42 µM; in test [6], > 10 µM; in test [3] it was > 10 µM.
As to `O=C1NC(=S)N/C1=C\c1c[nH]c2ccc(Br)cc12`, the figures for the Ki in test [1], in test [2] and in test [7] were 4.35 µM, 1.68 µM and 2.75 µM, respectively.
For the molecule `CN1C(=N)NC(=O)/C1=C\c1c[nH]c2ccc(Br)cc12`, the Ki in test [1] was 2.45 µM; in test [2] it was 0.852 µM; in test [3] it was > 10 µM; in test [7], 3.21 µM.
Regarding `C/N=C1\NC(=O)/C(=C/c2c[nH]c3ccc(Br)cc23)N1`, the Ki in test [4] was 0.86 µM; in test [8] it was 0.226 µM; in test [1] it was 0.426 µM; in test [2], 0.093 µM; in test [6], 0.676 µM.
With `CSC1=NC(=O)/C(=C/c2c[nH]c3cc(Br)ccc23)N1`, the Ki in test [8] stood at 5.31 µM; in test [1] it was 4.37 µM; in test [2], 1.14 µM.
For the molecule `C/N=C1\NC(=O)/C(=C/c2c[nH]c3c(Br)cccc23)N1`, the Ki in test [5] was determined as 3.32 µM; in test [8] it was 0.603 µM; in test [1] it was 0.678 µM; in test [2] it was 0.353 µM; in test [6], 3.59 µM.
